In US6673549B1, “Genes expressed in C3A liver cell cultures treated with steroids” (Incyte Corporation, priority 2000, dated 2004):
Where “and” joins values, the source holds several entries; their conditions need not be identical. Identical values can stand only once.

System: human C3A liver cells
Experiment: Microarray differential gene expression in human C3A liver cell cultures treated with steroids
Assay type: cell-based
Text: Incyte clones represent template sequences derived from the LWESEQ GOLD assembled human sequence database (Incyte Genomics). In cases where more than one clone was available for a particular template, the 5′-most clone in the template was used on the microarray. The HUMAN GENOME GEM series 1-4 microarrays (Incyte Genomics) contain 28,626 array elements which represent 10,068 annotated clusters and 18,558 unannotated clusters. For the UNIGEM series microarrays (Incyte Genomics), Incyte clones were mapped to non-redundant Unigene clusters (Unigene database (build 46), NCBI; Shuler (1997) J Mol Med 75:694-698), and the 5′ clone with the strongest BLAST alignment (at least 90% identity and 100 bp overlap) was chosen, verified, and used in the construction of the microarray. The UNIGEM V microarray (Incyte Genomics) contains 7075 array elements which represent 4610 annotated genes and 2,184 unannotated clusters.
To construct microarrays, cDNAs were amplified from bacterial cells using primers complementary to vector sequences flanking the cDNA insert. […] Amplified cDNAs were then purified using […]-400 columns (APB). Purified cDNAs were immobilized on polymer-coated glass slides. Glass microscope slides (Corning, Corning N.Y.) were cleaned by ultrasound in 0.1% SDS and acetone, with extensive distilled water washes between and after treatments. Glass slides were etched in 4% hydrofluoric acid (VWR Scientific Products, West Chester Pa.), washed thoroughly in distilled water, and coated with 0.05% aminopropyl silane (Sigma Aldrich) in 95% ethanol. Coated slides were cured in a 110° C. oven. cDNAs were applied to the coated glass substrate using a procedure described in U.S. Pat. No. 5,807,522. One microliter of the cDNA at an average concentration of 100 ng/μl was loaded into the open capillary printing element by a high-speed robotic apparatus which then deposited about 5 nl of cDNA per slide.
Microarrays were UV-crosslinked using a […] UV-crosslinker (Stratagene), and then washed at room temperature once in 0.2% SDS and three times in distilled water. Non-specific binding sites were blocked by incubation of microarrays in 0.2% casein in phosphate buffered saline (Tropix, Bedford Mich.) for 30 minutes at 60° C. followed by washes in 0.2% SDS and distilled water as before.
In all cases, mRNA from untreated early confluent C3A cells were prepared in parallel as described below.
Cells were harvested and lysed in 1 ml of TRIZOL reagent (5×10^6 cells/ml; Life Technologies). Lysates were vortexed thoroughly, incubated at room temperature for 2-3 minutes, and extracted with 0.5 ml chloroform. The extract was mixed, incubated at room temperature for 5 minutes, and centrifuged at 15,000 rpm for 15 minutes at 4° C. The aqueous layer was collected, and an equal volume of isopropanol was added. Samples were mixed, incubated at room temperature for 10 minutes, and centrifuged at 15,000 rpm for 20 minutes at 4° C. The supernatant was removed, and the RNA pellet was washed with 1 ml of 70% ethanol, centrifuged at 15,000 rpm at 4° C., and resuspended in RNAse-free water. The concentration of the RNA was determined by measuring the optical density at 260 nm.
Poly(A) RNA was prepared using an OLIGOTEX mRNA kit (Qiagen) with the following modifications: OLIGOTEX beads were washed in tubes instead of on spin columns, resuspended in elution buffer, and then loaded onto spin columns to recover mRNA. To obtain maximum yield, the mRNA was eluted twice.
Each poly(A) RNA sample was reverse transcribed using MMLV reverse-transcriptase, 0.05 pg/μl oligo-d(T) primer (21mer), 1× first strand buffer, 0.03 units/ul RNAse inhibitor, 500 uM dATP, 500 uM dGTP, 500 uM dTTP, 40 uM dCTP, and 40 uM either dCTP-Cy3 or dCTP-Cy5 (APB).

## CCCC1O[C@@H]2C[C@H]3[C@@H]4CCC5=CC(=O)C=C[C@]5(C)[C@H]4[C@@H](O)C[C@]3(C)[C@]2(C(=O)CO)O1 (stereo partly drawn) [budesonide]
Clone ID 380006
  Ave DE [log2] (C3A treated with steroid): −1.05 log2
Clone ID 517374
  Ave DE [log2] (C3A treated with steroid): 1.04 log2
Clone ID 615776
  Ave DE [log2] (C3A treated with steroid): 1.06 log2
Clone ID 622565
  Ave DE [log2] (C3A treated with steroid): 1.20 log2
Clone ID 654246
  Ave DE [log2] (C3A treated with steroid): −1.08 log2
Clone ID 686993
  Ave DE [log2] (C3A treated with steroid): 0.51 log2
Clone ID 689296
  Ave DE [log2] (C3A treated with steroid): 1.08 log2 and 1.05 log2
Clone ID 1401312
  Ave DE [log2] (C3A treated with steroid): −1.09 log2
Clone ID 1604437
  Ave DE [log2] (C3A treated with steroid): 1.18 log2
Clone ID 1611629
  Ave DE [log2] (C3A treated with steroid): 1.19 log2
Clone ID 1662870
  Ave DE [log2] (C3A treated with steroid): −0.93 log2
Clone ID 1679595
  Ave DE [log2] (C3A treated with steroid): 1.10 log2
Clone ID 1697719
  Ave DE [log2] (C3A treated with steroid): −0.81 log2
Clone ID 1716458
  Ave DE [log2] (C3A treated with steroid): 1.24 log2
Clone ID 1798594
  Ave DE [log2] (C3A treated with steroid): 0.69 log2
Clone ID 1823946
  Ave DE [log2] (C3A treated with steroid): −1.10 log2
Clone ID 1876829
  Ave DE [log2] (C3A treated with steroid): −1.13 log2
Clone ID 1930847
  Ave DE [log2] (C3A treated with steroid): −1.09 log2
Clone ID 1973123
  Ave DE [log2] (C3A treated with steroid): −1.23 log2
Clone ID 2057513
  Ave DE [log2] (C3A treated with steroid): 1.13 log2
Clone ID 2078880
  Ave DE [log2] (C3A treated with steroid): −0.80 log2
Clone ID 2170820
  Ave DE [log2] (C3A treated with steroid): 1.17 log2
Clone ID 2173973
  Ave DE [log2] (C3A treated with steroid): 1.08 log2
Clone ID 2189061
  Ave DE [log2] (C3A treated with steroid): 0.15 log2
Clone ID 2222155
  Ave DE [log2] (C3A treated with steroid): 0.58 log2
Clone ID 2227273
  Ave DE [log2] (C3A treated with steroid): 1.05 log2
Clone ID 2287724
  Ave DE [log2] (C3A treated with steroid): −1.06 log2
Clone ID 2343836
  Ave DE [log2] (C3A treated with steroid): 0.93 log2
Clone ID 2404746
  Ave DE [log2] (C3A treated with steroid): 0.42 log2
Clone ID 2482388
  Ave DE [log2] (C3A treated with steroid): 1.19 log2
Clone ID 2660756
  Ave DE [log2] (C3A treated with steroid): 1.13 log2
Clone ID 2687356
  Ave DE [log2] (C3A treated with steroid): 1.26 log2
Clone ID 2703282
  Ave DE [log2] (C3A treated with steroid): −1.01 log2
Clone ID 3139631
  Ave DE [log2] (C3A treated with steroid): −0.97 log2
Clone ID 3229449
  Ave DE [log2] (C3A treated with steroid): 0.39 log2
Clone ID 3408804
  Ave DE [log2] (C3A treated with steroid): −1.24 log2
Clone ID 3426776
  Ave DE [log2] (C3A treated with steroid): 0.61 log2
Clone ID 3449615
  Ave DE [log2] (C3A treated with steroid): 1.05 log2
Clone ID 3497137
  Ave DE [log2] (C3A treated with steroid): −0.94 log2
Clone ID 3687607
  Ave DE [log2] (C3A treated with steroid): 1.17 log2
Clone ID 3721985
  Ave DE [log2] (C3A treated with steroid): −1.10 log2
Clone ID 3770530
  Ave DE [log2] (C3A treated with steroid): −0.98 log2
Clone ID 3973687
  Ave DE [log2] (C3A treated with steroid): 1.31 log2
Clone ID 4089291
  Ave DE [log2] (C3A treated with steroid): −1.00 log2
Clone ID 4215034
  Ave DE [log2] (C3A treated with steroid): 1.20 log2
Clone ID 4252872
  Ave DE [log2] (C3A treated with steroid): 1.24 log2
Clone ID 4403805
  Ave DE [log2] (C3A treated with steroid): 1.12 log2
Clone ID 4630674
  Ave DE [log2] (C3A treated with steroid): 0.97 log2
Clone ID 4855265
  Ave DE [log2] (C3A treated with steroid): 1.14 log2
Clone ID 4863677
  Ave DE [log2] (C3A treated with steroid): 1.11 log2
Clone ID 5038177
  Ave DE [log2] (C3A treated with steroid): 0.57 log2
Clone ID 5102951
  Ave DE [log2] (C3A treated with steroid): 0.84 log2
Clone ID 5326983
  Ave DE [log2] (C3A treated with steroid): 0.94 log2

## C#C[C@]1(O)CC[C@H]2[C@@H]3CCC4=Cc5oncc5C[C@]4(C)[C@H]3CC[C@@]21C [danazol]
Clone ID 1500810
  Ave DE [log2] (C3A treated with steroid): −0.41 log2
Clone ID 2607834
  Ave DE [log2] (C3A treated with steroid): 0.92 log2
Clone ID 5038177
  Ave DE [log2] (C3A treated with steroid): 0.74 log2

## C[C@@H]1C[C@H]2[C@@H]3CCC4=CC(=O)C=C[C@]4(C)[C@@]3(F)[C@@H](O)C[C@]2(C)[C@@]1(O)C(=O)CO [dexamethasane]
Clone ID 2253102
  Ave DE [log2] (C3A treated with steroid): −1.20 log2
